Test results taken from ChEMBL document CHEMBL5375986, “Discovery of Lead 2-Thiazolylhydrazones with Broad-Spectrum and Potent Antifungal Activity” (J Med Chem, 2023).
Converted amounts (≈) assume the structure as drawn.

How the values were obtained:
[1] = tested on: Nakaseomyces glabratus; experiment: Antifungal activity against Candida glabrata ATCC 2001 assessed as inhibition of fungal growth incubated for 24 to 48 hrs by CLSI protocol based broth microdilution method; assay type: functional; details: time 24-48 hrs
[2] = tested on: Cryptococcus neoformans; experiment: Antifungal activity against Cryptococcus neoformans ATCC 24067 assessed as inhibition of fungal growth incubated for 24 to 48 hrs by CLSI based broth microdilution method; assay type: functional; details: time 24-48 hrs
[3] = tested on: Pichia kudriavzevii; experiment: Antifungal activity against Candida krusei ATCC 20298 assessed as inhibition of fungal growth incubated for 24 to 48 hrs by CLSI protocol based broth microdilution method; assay type: functional; details: time 24-48 hrs
[4] = Antifungal activity against Cryptococcus gattii ATCC 24065 assessed as inhibition of fungal growth incubated for 24 to 48 hrs by CLSI protocol based broth microdilution method; assay type: functional, Cryptococcus gattii VGI; details: time 24-48 hrs
[5] = tested on: Candida parapsilosis; experiment: Antifungal activity against Candida parapsilosis ATCC 22019 assessed as inhibition of fungal growth incubated for 24 to 48 hrs by CLSI protocol based broth microdilution method; assay type: functional; details: Lodderomyces parapsilosis, time 24-48 hrs
[6] = tested on: [Candida] auris; experiment: Antifungal activity against Candida auris COLO 01 assessed as inhibition of fungal growth incubated for 24 to 48 hrs by CLSI protocol based broth microdilution method; assay type: functional; details: Candidozyma auris, time 24-48 hrs
[7] = tested on: Candida tropicalis; experiment: Antifungal activity against Candida tropicalis ATCC 750 assessed as inhibition of fungal growth incubated for 24 to 48 hrs by CLSI protocol based broth microdilution method; assay type: functional; details: time 24-48 hrs
[8] = tested on: Candida albicans; experiment: Antifungal activity against Candida albicans SC5314 assessed as inhibition of fungal growth incubated for 24 to 48 hrs by CLSI protocol based broth microdilution method; assay type: functional; details: time 24-48 hrs
[9] = Antifungal activity against Cryptococcus gattii VGI assessed as inhibition of fungal growth; assay type: functional
[10] = tested on: Cryptococcus neoformans; experiment: Antifungal activity against Cryptococcus neoformans assessed as inhibition of fungal growth; assay type: functional
[11] = Cytotoxicity against human PBMC cells assessed as inhibition of cell growth incubated for 24 to 48 hrs by MTT assay; assay type: toxicity, cell-based

Row | SMILES | MIC [1] | MIC [2] | MIC [3] | MIC [4] | MIC [5] | MIC [6] | MIC [7] | MIC [8] | MIC [9] | MIC [10] | IC50 [11]
1 | C/C(CCC(=O)O)=N\Nc1nc(-c2ccc(Cl)cc2)cs1 | 96.5 µM (≈ 31.2 µg/mL) | 3 µM (≈ 0.971 µg/mL) | 1.5 µM (≈ 0.486 µg/mL) | 1.5 µM (≈ 0.486 µg/mL) | 6 µM (≈ 1.94 µg/mL) | 0.7 µM (≈ 0.227 µg/mL) | 6 µM (≈ 1.94 µg/mL) | 1.5 µM (≈ 0.486 µg/mL) |  |  | 
2 | OC(Cn1cncn1)(Cn1cncn1)c1ccc(F)cc1F [FLUCONAZOLE] | 13.1 µM (≈ 4.01 µg/mL) |  | 104 µM (≈ 32 µg/mL) | 52.2 µM (≈ 16 µg/mL) | 3.3 µM (≈ 1.01 µg/mL) |  | 0.8 µM (≈ 0.245 µg/mL) | 1.6 µM (≈ 0.49 µg/mL) |  |  | 
3 | CCOC(=O)Cc1csc(NN=C(C)C(=O)O)n1 |  | > 125 µM | 28.8 µM (≈ 7.81 µg/mL) | > 125 µM |  | 57.6 µM (≈ 15.6 µg/mL) | > 125 µM | 57.6 µM (≈ 15.6 µg/mL) |  |  | 
4 | c1ccc(-c2csc(NN=C3CCCC3)n2)cc1 |  |  |  |  |  |  |  |  | 1.94 µM (≈ 0.499 µg/mL) | 1.94 µM (≈ 0.499 µg/mL) | 
5 | C/C(CCC(=O)O)=N\Nc1nc(-c2ccccc2)cs1 | 1.7 µM (≈ 0.492 µg/mL) | 6.7 µM (≈ 1.94 µg/mL) | 13.5 µM (≈ 3.91 µg/mL) | 6.7 µM (≈ 1.94 µg/mL) | 13.5 µM (≈ 3.91 µg/mL) | 3.4 µM (≈ 0.984 µg/mL) | 3.4 µM (≈ 0.984 µg/mL) | 3.4 µM (≈ 0.984 µg/mL) |  |  | 
6 | C/C(=N\Nc1nc(-c2ccc(Br)cc2)cs1)C(=O)O |  | 2.4 µM (≈ 0.816 µg/mL) | 23 µM (≈ 7.82 µg/mL) | 2.4 µM (≈ 0.816 µg/mL) |  | 23 µM (≈ 7.82 µg/mL) | 91.9 µM (≈ 31.3 µg/mL) | 23 µM (≈ 7.82 µg/mL) |  |  | 
7 | C/C(CCC(=O)O)=N\Nc1nc(-c2ccc(C#N)cc2)cs1 | 49.7 µM (≈ 15.6 µg/mL) | 1.5 µM (≈ 0.472 µg/mL) | 1.5 µM (≈ 0.472 µg/mL) | 1.5 µM (≈ 0.472 µg/mL) | 6.2 µM (≈ 1.95 µg/mL) | 0.8 µM (≈ 0.251 µg/mL) | 24.8 µM (≈ 7.8 µg/mL) | 3.1 µM (≈ 0.975 µg/mL) |  |  | 
8 | CCOC(=O)/C(C)=N\Nc1nc(C)c(C(=O)OCC)s1 | > 125 µM | > 125 µM | > 125 µM | > 125 µM | > 125 µM | > 125 µM | 104 µM (≈ 31.3 µg/mL) | > 125 µM |  |  | 
9 | C[C@@H]1[C@H](O)[C@@H](C)/C=C/C=C/C=C/C=C/C=C/C=C/C=C/[C@H](O[C@@H]2O[C@H](C)[C@@H](O)[C@H](N)[C@@H]2O)C[C@@H]2O[C@](O)(C[C@@H](O)C[C@@H](O)[C@H](O)CC[C@@H](O)C[C@@H](O)CC(=O)O[C@H]1C)C[C@H](O)[C@H]2C(=O)O [AMPHOTERICIN B] | 1.1 µM (≈ 1.02 µg/mL) | 0.5 µM (≈ 0.462 µg/mL) | 4.3 µM (≈ 3.97 µg/mL) | 1.1 µM (≈ 1.02 µg/mL) | 2.2 µM (≈ 2.03 µg/mL) | 4.3 µM (≈ 3.97 µg/mL) | 0.5 µM (≈ 0.462 µg/mL) | 2.2 µM (≈ 2.03 µg/mL) |  |  | 
10 | C/C(=N\Nc1nc(-c2ccccc2)cs1)C(=O)O |  |  | 29.9 µM (≈ 7.81 µg/mL) |  |  | 29.9 µM (≈ 7.81 µg/mL) | 59.8 µM (≈ 15.6 µg/mL) | 29.9 µM (≈ 7.81 µg/mL) |  |  | 
11 | CCOC(=O)/C(C)=N/Nc1nc(-c2ccccc2)cs1 | > 125 µM | > 125 µM | > 125 µM | > 125 µM | > 125 µM | > 125 µM | > 125 µM | > 125 µM |  |  | 
12 | COc1ccc(-c2csc(N/N=C(\C)CCC(=O)O)n2)cc1 | 48.9 µM (≈ 15.6 µg/mL) | 0.8 µM (≈ 0.256 µg/mL) | 1.5 µM (≈ 0.479 µg/mL) | 0.2 µM (≈ 0.0639 µg/mL) | 3 µM (≈ 0.958 µg/mL) | 1.5 µM (≈ 0.479 µg/mL) | 6.1 µM (≈ 1.95 µg/mL) | 3 µM (≈ 0.958 µg/mL) |  |  | 
13 | CCOC(=O)Cc1csc(NN=C(C)C(=O)OCC)n1 | 52.2 µM (≈ 15.6 µg/mL) | > 125 µM | 13 µM (≈ 3.89 µg/mL) | > 125 µM | 104 µM (≈ 31.3 µg/mL) | 104 µM (≈ 31.3 µg/mL) | 104 µM (≈ 31.3 µg/mL) | 104 µM (≈ 31.3 µg/mL) |  |  | 
14 | C/C(=N\Nc1nc(-c2ccc(C)cc2)cs1)C(=O)O |  |  | 28.4 µM (≈ 7.82 µg/mL) |  |  | 14.2 µM (≈ 3.91 µg/mL) | 114 µM (≈ 31.3 µg/mL) | 14.2 µM (≈ 3.91 µg/mL) |  |  | 
15 | COc1ccc(-c2csc(NN=C(C)CCO)n2)cc1 |  |  |  |  |  |  |  |  | 0.9 µM (≈ 0.262 µg/mL) | 0.45 µM (≈ 0.131 µg/mL) | 
16 | CCOC(=O)Cc1csc(NN=C(C)CCO)n1 | 7.2 µM (≈ 1.95 µg/mL) | > 125 µM | 3.6 µM (≈ 0.977 µg/mL) | > 125 µM | 115 µM (≈ 31.3 µg/mL) | 115 µM (≈ 31.3 µg/mL) | 57.6 µM (≈ 15.6 µg/mL) | 115 µM (≈ 31.3 µg/mL) |  |  | 
17 | CCOC(=O)/C(C)=N/Nc1nc(-c2ccc(Cl)cc2)cs1 | > 125 µM | > 125 µM | > 125 µM | > 125 µM | > 125 µM | > 125 µM | > 125 µM | > 125 µM |  |  | 
18 | CCOC(=O)Cc1csc(N/N=C\C2CCCCC2)n1 | > 125 µM | 106 µM (≈ 31.3 µg/mL) | 0.8 µM (≈ 0.236 µg/mL) | 106 µM (≈ 31.3 µg/mL) | 52.9 µM (≈ 15.6 µg/mL) | 52.9 µM (≈ 15.6 µg/mL) | 6.6 µM (≈ 1.95 µg/mL) | 52.9 µM (≈ 15.6 µg/mL) |  |  | 
19 | CCC(C)n1ncn(-c2ccc(N3CCN(c4ccc(OCC5COC(Cn6cncn6)(c6ccc(Cl)cc6Cl)O5)cc4)CC3)cc2)c1=O (configuration not stated) [ITRACONAZOLE] | 0.4 µM (≈ 0.282 µg/mL) | 1.4 µM (≈ 0.988 µg/mL) | 2.8 µM (≈ 1.98 µg/mL) | 2.8 µM (≈ 1.98 µg/mL) | 0.4 µM (≈ 0.282 µg/mL) | 0.4 µM (≈ 0.282 µg/mL) | 0.2 µM (≈ 0.141 µg/mL) | 0.7 µM (≈ 0.494 µg/mL) |  |  | 
20 | Cc1ccc(NC(=O)c2ccc(CN3CCN(C)CC3)cc2)cc1Nc1nccc(-c2cccnc2)n1 [IMATINIB] |  |  |  |  |  |  |  |  |  |  | 159 µM
